Key:
Cathepsin D = Cathepsin D (Homo sapiens, UniProt P07339); experiment: In Vitro Enzymatic Cathepsin D (Cat D) FRET Assay
Method: Recombinant Cat D was expressed in CHO cells. The assay buffer for CathepsinD is 0.05 M citrate pH 3.5, 10% DMSO final, 5 mM CHAPS. […] The assays are effectively started by the addition of different FRET substrates (20 nM for Cat D) and the combination is incubated for one hour. The FRET assay is terminated with by addition of Tris buffer, which raises the pH to neutrality, and the fluorescence is determined. The FRET substrate is a peptide with commercially available fluorophore and quencher, on opposite sides of the BACE cleavage site. […] Proteolytic cleavage of the FRET substrate releases quenching of fluorescence (Cat D excitation 500 nm and emission 580 nm).

Beta-secretase 2 = target: T1, Beta-secretase 2 (Homo sapiens, UniProt Q9Y5Z0); experiment: In Vitro Enzymatic BACE1 and BACE2 FRET Assays
T1 sequence (Q9Y5Z0 whole entry): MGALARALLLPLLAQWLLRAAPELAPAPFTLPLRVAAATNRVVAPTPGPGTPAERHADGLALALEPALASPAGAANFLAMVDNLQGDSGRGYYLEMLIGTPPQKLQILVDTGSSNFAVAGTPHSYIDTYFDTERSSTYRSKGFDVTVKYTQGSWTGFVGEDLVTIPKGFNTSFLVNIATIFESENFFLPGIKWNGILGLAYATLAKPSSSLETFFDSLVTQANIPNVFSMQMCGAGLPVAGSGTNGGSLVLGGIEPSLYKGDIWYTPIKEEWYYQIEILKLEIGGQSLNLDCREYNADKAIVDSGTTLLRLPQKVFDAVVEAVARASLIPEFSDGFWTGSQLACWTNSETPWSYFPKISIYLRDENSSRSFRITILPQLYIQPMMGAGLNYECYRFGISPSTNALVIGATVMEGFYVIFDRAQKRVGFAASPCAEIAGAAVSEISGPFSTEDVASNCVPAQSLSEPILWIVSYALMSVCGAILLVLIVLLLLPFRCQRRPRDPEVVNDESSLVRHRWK
Method: (§1) The cDNAs for both human recombinant BACE1 and BACE2 with C-terminal 6-His Tags were cloned into transient protein expression vectors, which were subsequently transfected into mammalian cell lines. These recombinant proteins were further purified using Ni-NTA affinity chromatography (Qiagen). The assay buffer used in these screens is 0.05 M acetate, pH 4.5, 8% DMSO final, 100 uM genapol (which is a nonionic detergent, below its Critical Micelle Concentration). […] This assay is effectively started by the addition of FRET substrate (50 nM) and the combination is incubated for one hour. The FRET assay is terminated by addition of Tris buffer, which raises the pH to neutrality, and the fluorescence is determined. The FRET substrate is a peptide with commercially available fluorophore and quencher, on opposite sides of the BACE cleavage site.

Beta-secretase 1 = Beta-secretase 1 (Homo sapiens, UniProt P56817); experiment: In Vitro Enzymatic BACE1 and BACE2 FRET Assays
Sequence of Beta-secretase 1 (P56817 whole entry): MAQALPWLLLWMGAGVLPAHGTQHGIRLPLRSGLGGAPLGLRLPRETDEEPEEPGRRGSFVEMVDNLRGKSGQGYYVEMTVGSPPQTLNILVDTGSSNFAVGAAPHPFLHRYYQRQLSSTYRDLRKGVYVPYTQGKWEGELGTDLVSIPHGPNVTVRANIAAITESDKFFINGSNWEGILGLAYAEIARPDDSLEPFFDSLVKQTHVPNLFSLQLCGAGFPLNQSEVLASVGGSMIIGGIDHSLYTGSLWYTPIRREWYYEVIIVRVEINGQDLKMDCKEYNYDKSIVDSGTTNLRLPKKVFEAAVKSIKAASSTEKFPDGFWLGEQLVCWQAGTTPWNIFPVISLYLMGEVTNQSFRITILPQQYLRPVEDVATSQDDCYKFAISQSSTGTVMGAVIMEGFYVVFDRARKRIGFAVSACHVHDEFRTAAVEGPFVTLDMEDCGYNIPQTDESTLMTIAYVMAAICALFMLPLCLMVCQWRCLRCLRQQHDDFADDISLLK
Method: as §1

Sequence of Cathepsin D (P07339 65-162 limits assumed): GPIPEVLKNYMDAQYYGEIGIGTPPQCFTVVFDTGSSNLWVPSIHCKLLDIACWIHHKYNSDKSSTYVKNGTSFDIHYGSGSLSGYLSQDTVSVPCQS
Sequence of Cathepsin D (P07339 169-412 limits assumed): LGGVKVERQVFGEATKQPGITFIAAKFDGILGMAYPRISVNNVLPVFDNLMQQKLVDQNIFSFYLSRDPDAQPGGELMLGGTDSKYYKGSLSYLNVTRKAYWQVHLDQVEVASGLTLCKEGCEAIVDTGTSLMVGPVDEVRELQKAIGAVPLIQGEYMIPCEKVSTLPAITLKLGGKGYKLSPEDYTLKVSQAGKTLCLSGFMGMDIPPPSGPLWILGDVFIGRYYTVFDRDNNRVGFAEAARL

SMILES | IC50 (Cathepsin D) [µM] | IC50 (Beta-secretase 2) [µM] | IC50 (Beta-secretase 1) [µM]
NC1=N[C@](CF)(c2cc(Nc3ncnc4cc(Cl)cnc34)ccc2F)[C@H]2C[C@@H]2S1 [US20160046618, Example 39] | 1220 | 0.0278 | –
Cc1cc(C#N)cnc1C(=O)Nc1cc(F)c(F)c([C@@]2(CF)N=C(N)S[C@@]3(C(F)F)C[C@@H]23)c1 [US20160046618, Example 94] | 559 | < 0.00203 | –
C[C@]1(c2cc(NC(=O)c3ccc(Cl)cn3)cc(F)c2F)N=C(N)S[C@@]2(C(=O)O)C[C@H]21 [US20160046618, Example 899] | > 400 | 0.00258 | 0.00889
NC1=N[C@](CF)(c2cc(Nc3nccc4nc(OCc5ncco5)cnc34)ccc2F)[C@@H]2C[C@]2(c2c[nH]nn2)S1 [US20160046618, Example 957] | 1260 | 0.00538 | 0.000621

Further lines, results first:

IC50 (Cathepsin D) [µM] | IC50 (Beta-secretase 2) [µM] | IC50 (Beta-secretase 1) [µM] | SMILES
905 | 0.124 | 0.00342 | C#C[C@H](C)Oc1cnc(C(=O)Nc2cc(F)c(F)c([C@@]3(C)N=C(N)S[C@@]4(CF)C[C@H]43)c2)c(C)n1 [US20160046618, Example 616]
946 | 0.225 | 0.00492 | C#C[C@H](C)Oc1cnc(C(=O)Nc2cc(F)c(F)c([C@@]3(C)N=C(N)S[C@@]4(COC)C[C@H]43)c2)c(C)n1 [US20160046618, Example 622]
196 | 0.522 | 0.0433 | C#C[C@H](C)Oc1cnc(C(=O)Nc2ccc(F)c([C@@]3(C)N=C(N)S[C@@]4(C(F)F)C[C@@H]34)c2)c(C)c1 [US20160046618, Example 648]
150 | 0.0147 | 0.000264 | C#CCOc1cnc(C(=O)Nc2ccc(F)c([C@@]3(C)N=C(N)S[C@@]4(CF)C[C@H]43)c2)cn1 [US20160046618, Example 822]
> 400 | 0.555 | 0.037 | C=CC(C)Oc1cnc(C(=O)Nc2ccc(F)c([C@@]3(C)N=C(N)S[C@@]4(COC)C[C@H]43)c2)cn1 (stereo not given in full) [US20160046618, Example 1063]

Reference: BindingDB's records for patent US20160046618 (Amgen, 2016)
